{"source": "patent US20250367282A1", "about": "“POLYCATION CARRIER PARTICLE” (ALLARTA LIFE SCIENCE INC., priority 2022, published 2025)", "key": {"[1]": {"test_system": "RAW 264.7 macrophage cells", "assay": "MTS cytotoxicity assay", "assay_type": "cell-based", "conditions": "4 hours incubation; particles 0.1 wt. %, DMSO 10% v/v, serum-free DMEM; mean±standard deviation", "experimental": "The cells were cultured for 3 days to reach around 80% confluence. The media was removed from the wells and the cells were washed once with about 250 μL of PBS. […] As controls, 100 μL of serum-free DMEM supplemented with 1% penicillin-streptomycin, 100 μL of 10% v/v DMSO in serum-free DMEM supplemented with 1% penicillin-streptomycin, 100 μL of 0.1 wt. % OVA-FITC in serum-free DMEM supplemented with 1% penicillin-streptomycin, and 100 μL of 0.1 wt. % HD particles suspensions in serum-free DMEM supplemented with 1% penicillin-streptomycin were added to the cells. The cells were incubated for 4 h at 37° C., 5% CO2 in a humidified atmosphere. 20 μL of MTS solution (Promega) was added to the wells and mixed. The plates were shaken at a horizontal distance of 1 mm for 10 seconds and read at 490 nm using a Biotek™ 800 TS absorbance reader. Statistical analysis was performed on the data using one-way analysis of variance (ANOVA) with a Bonferroni post hoc analysis. Significance level was set at p<0.05."}, "[2]": {"test_system": "RAW 264.7 macrophage cells", "assay_type": "cell-based", "experimental": "The cells were cultured for 3 days to reach about 80% confluence. The media was removed from the wells and the cells were washed once with about 250 μL of PBS. […] As controls, cells were exposed to a) 100 μL of serum-free DMEM, b) 100 µL of 10% v/v DMSO in serum-free DMEM, and c) 100 μL of 0.1 wt. % OVA-FITC in serum-free DMEM, were added to the cells. The cells were incubated for 4 h at 37° C., 5% CO2 in a humidified atmosphere. […] After 15 min, the paraformaldehyde solution was removed, the cells were washed twice with about 250 μL of PBS, and then 100 μL of PBS was added to the fixed cells. The cells were then imaged by brightfield and confocal fluorescence microscopy"}}, "data": [{"molecule": "C[S+](C)[O-]", "note": "[DMSO, dimethyl sulfoxide]", "values": [{"measurement": "mean viability of RAW 264.7 cells", "setting": "[1]", "result": "64±12", "unit": "%"}, {"measurement": "cell morphology by brightfield microscopy", "setting": "[2]", "result": "rounded cell morphology and signs of apoptosis"}]}]}
